Data as given in publication PMC7151078, “A Novel NMDA Receptor Antagonist Protects against Cognitive Decline Presented by Senescent Mice” (Pharmaceutics, 2020).

Columns and labels:
[1] = Microsomal stability in rat microsomes; type: in vitro ADME; settings: 37 °C, 0-60 min
Protocol: (§1) The human, rat, and mice microsomes employed were purchased from Tebu-Xenotech. The compound was incubated at 37 °C with the microsomes in a 50 mM phosphate buffer (pH = 7.4) containing 30 mM MgCl2, 10 mM NADP, 100 mM glucose-6-phosphate and 20 U/mL glucose-6-phosphate-dehydrogenase. Samples (75 µL) were taken from each well at 0, 10, 20, 40, and 60 min and transferred to a plate containing 4 °C 75 µL acetonitrile. Then, 30 µL of 0.5% formic acid in water was added to improve the chromatographic conditions. The plate was centrifuged (46,000× g, 30 min) and supernatants were taken and analyzed in a UPLC-MS/MS (Xevo-TQD, Waters) by employing a BEH C18 column and an isocratic gradient of 0.1% formic acid in water: 0.1% formic acid acetonitrile (60:40) for 5 minutes and a flow of 0.25 mL/min. The metabolic stability of the compounds was calculated from the logarithm of remaining compounds at each time point studied.

CYP2C9 = molecular target: T1, CYP2C9 (Homo sapiens, UniProt P11712); assay: Cytochrome inhibition, fluorescent detection (7-MFC substrate); type: in vitro ADME; settings: recombinant human CYP2C9
T1 construct: host or cells: insect cell microsomes
T1 sequence (P11712 whole entry): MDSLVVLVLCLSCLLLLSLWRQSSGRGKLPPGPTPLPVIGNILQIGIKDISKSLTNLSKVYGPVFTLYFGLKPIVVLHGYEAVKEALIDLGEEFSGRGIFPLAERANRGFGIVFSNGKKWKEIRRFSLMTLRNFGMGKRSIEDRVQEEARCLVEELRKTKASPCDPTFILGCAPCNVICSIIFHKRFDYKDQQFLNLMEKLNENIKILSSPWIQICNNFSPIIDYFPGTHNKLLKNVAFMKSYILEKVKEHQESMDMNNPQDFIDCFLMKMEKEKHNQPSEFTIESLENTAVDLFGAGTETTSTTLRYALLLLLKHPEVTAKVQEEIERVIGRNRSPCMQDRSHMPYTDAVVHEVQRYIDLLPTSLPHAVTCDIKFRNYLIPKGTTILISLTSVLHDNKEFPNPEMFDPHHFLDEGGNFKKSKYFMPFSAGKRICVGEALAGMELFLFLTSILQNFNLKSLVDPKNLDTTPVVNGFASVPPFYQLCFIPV
Protocol: (§2) To screen the inhibition potential of the compounds, recombinant human cytochrome P450 enzymes (CYP1A2, CYP2C9, CYP2C19, CYP2D6, and CYP3A4) and probe substrates were used with the fluorescent detection method. Incubations were conducted in 200-µL volume 96 well microtiter plates (COSTAR 3915). Addition of cofactor-buffer mixture (KH2PO4 buffer, 1.3 mM NADP+, 3.3 mM MgCl2, 3.3 mM Glucose-6-phosphate and 0.4 U/mL Glucose-6-phosphate Dehydrogenase), supersomes control, standard inhibitors (Furafyline, Tranylzypromine, Ketoconazole, Sulfaphenazole, and Quinidine; from Sigma Aldrich), and test compounds to plates were carried out using a a liquid handling station (Zephyr Caliper). The plate was then pre-incubated at 37 °C for 5 min, and the reaction initiated by the addition of pre-warmed enzyme/substrate (E/S) mix. […] Fluorescence per well was measured using a fluorescence plate reader (Tecan M1000 pro), and the percentage of inhibition was calculated.

CYP2C19 = molecular target: T2, CYP2C19 (Homo sapiens, UniProt P33261); assay: Cytochrome inhibition, fluorescent detection (CEC substrate); type: in vitro ADME; settings: recombinant human CYP2C19
T2 construct: host or cells: insect cell microsomes
T2 sequence (P33261 whole entry): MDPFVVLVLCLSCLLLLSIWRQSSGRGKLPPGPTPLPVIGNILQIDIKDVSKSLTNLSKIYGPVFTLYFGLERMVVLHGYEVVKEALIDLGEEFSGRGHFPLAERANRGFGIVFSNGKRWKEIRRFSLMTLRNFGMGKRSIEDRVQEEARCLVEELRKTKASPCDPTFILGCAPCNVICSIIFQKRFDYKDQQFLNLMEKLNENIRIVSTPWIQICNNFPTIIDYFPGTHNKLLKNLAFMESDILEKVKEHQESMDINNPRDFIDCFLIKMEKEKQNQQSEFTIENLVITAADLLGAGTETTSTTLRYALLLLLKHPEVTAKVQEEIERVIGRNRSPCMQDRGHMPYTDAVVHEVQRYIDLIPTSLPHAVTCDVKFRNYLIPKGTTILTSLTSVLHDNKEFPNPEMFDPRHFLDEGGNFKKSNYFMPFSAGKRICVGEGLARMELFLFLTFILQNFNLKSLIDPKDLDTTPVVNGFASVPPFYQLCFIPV
Protocol: as §2

CYP1A2 = molecular target: T3, CYP1A2 (Homo sapiens, UniProt P05177); assay: as above; type: in vitro ADME; settings: recombinant human CYP1A2
T3 construct: host or cells: insect cell microsomes
T3 sequence (P05177 1-516): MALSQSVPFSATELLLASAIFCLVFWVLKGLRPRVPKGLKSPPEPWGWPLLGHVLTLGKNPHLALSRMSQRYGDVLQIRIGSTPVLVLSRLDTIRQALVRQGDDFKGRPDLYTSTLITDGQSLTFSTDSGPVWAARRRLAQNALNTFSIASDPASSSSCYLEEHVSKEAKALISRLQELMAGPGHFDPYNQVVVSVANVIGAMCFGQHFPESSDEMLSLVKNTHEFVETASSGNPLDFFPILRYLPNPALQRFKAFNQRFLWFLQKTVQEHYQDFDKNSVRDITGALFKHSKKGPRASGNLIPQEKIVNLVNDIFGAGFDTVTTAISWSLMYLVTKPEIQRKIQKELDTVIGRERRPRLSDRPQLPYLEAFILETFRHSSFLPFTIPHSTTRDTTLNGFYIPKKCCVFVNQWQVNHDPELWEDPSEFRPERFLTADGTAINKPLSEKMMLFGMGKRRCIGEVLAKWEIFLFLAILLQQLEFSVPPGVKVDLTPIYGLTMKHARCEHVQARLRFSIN
Protocol: as §2

[2] = Microsomal stability in mice microsomes; type: in vitro ADME; settings: 37 °C, 0-60 min
Protocol: as §1

NMDAR = system: NMDAR; set-up: method as in PMID 29767953; settings: early preclinical in vitro experiments; cited from earlier work
SAMR1 and SAMP8 mice = assay: Three-chamber test (TCT); type: in vivo, mouse; settings: SAMP8 strain, 5 mg/kg/day, vs SP8 Ct
Protocol: Male SAMR1 and SAMP8 mice (n = 41) with 20-weeks-old were used to carry out cognitive and molecular analysis. The animals were randomly divided into four groups: SAMR1 control (SR1 Ct) group (n = 11), SAMP8 control (SP8 Ct) group (n = 8), SAMR1 treated with RL-208 (SR1 RL-208 (5 mg/Kg)) group (n = 10) and SAMP8 treated with RL-208 (SP8 RL-208 (5 mg/Kg)) group (n = 12). Animals had free access to food and water, under standard temperature conditions (22±2 °C) and 12h:12h light-dark cycles (300 lux/0 lux). RL-208, (3,4,8,9-tetramethyltetracyclo[4.4.0.0^3,9.0^4,8]dec-1-yl)-methylamine hydrochloride, (5 mg/kg/day) was administered through drinking water for four weeks before starting the cognitive test. RL-208 was administered up to euthanasia (Figure 1A). Water consumption was controlled each week for each cage and strain. […]
The three-chamber test (TCT) was used to assess preference for social novelty (time spent with a novel intruder in contrast with a familiar one) and sociability (time spent with rodents). […] Each test consists of 15 minutes and is recorded with a camera. […] The time spent in each chamber was evaluated. Then, an intruder (same-sex and age) was added to one of the rooms in a metal cup, and behaviour is recorded for 10 minutes. The time spent in each chamber is evaluated as well as the time interacting with the intruder (e.g., sniffing, rears, entries in each chamber).

CYP3A4 = molecular target: T4, CYP3A4 (Homo sapiens, UniProt P08684); assay: Cytochrome inhibition, fluorescent detection (7-BFC and DBF substrates); type: in vitro ADME
T4 construct: host or cells: insect cell microsomes
T4 sequence (P08684 whole entry): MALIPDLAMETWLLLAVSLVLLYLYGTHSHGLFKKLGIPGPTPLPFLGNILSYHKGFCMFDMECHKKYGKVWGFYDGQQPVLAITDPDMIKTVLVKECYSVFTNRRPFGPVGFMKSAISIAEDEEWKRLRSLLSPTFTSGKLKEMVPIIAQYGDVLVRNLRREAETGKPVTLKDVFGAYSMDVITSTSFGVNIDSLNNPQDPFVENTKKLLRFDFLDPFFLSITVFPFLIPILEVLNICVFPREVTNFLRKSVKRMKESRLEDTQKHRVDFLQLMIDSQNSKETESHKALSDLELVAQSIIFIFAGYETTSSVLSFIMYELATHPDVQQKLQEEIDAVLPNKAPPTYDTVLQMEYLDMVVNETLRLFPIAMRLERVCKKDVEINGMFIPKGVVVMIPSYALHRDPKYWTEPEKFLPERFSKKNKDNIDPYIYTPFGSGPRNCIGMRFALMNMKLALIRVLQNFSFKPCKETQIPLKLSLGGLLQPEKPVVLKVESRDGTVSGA
Protocol: as §2

microsomal stability [1]: good | CYP2C9 inhibition (CYP2C9): 12 ± 2% | CYP2C19 inhibition (CYP2C19): 23 ± 1% | CYP1A2 inhibition (CYP1A2): 5 ± 2% | microsomal stability [2]: good | CYP3A4 (BFC) inhibition (CYP3A4; recombinant human CYP3A4, substrate BFC): 35 ± 4% | CYP3A4 (DBF) inhibition (CYP3A4; recombinant human CYP3A4, substrate DBF): 3 ± 1%
SMILES: CC12CC3CC1(C)C1(C)CC3(CN)CC21C.Cl [RL-208, (3,4,8,9-tetramethyltetracyclo [4.4.0.0^3,9.0^4,8]dec-1-yl)methylamine hydrochloride]
IC50 (NMDAR): ~1000 nM | time sniffing the intruder (sociability) (SAMR1 and SAMP8 mice): significantly augmented
